Here are results for 2 substances from US20220133783A1 (priority 2020, published 2022).

Where “and” joins values, the source holds several entries; their conditions need not be identical. Equal values may be shown once.

The test system of series [1] is VSV pseudo typed with SARS-CoV2 Spike protein (rVSG-dG 2019-CoV-2-18AA S). It is filed as cell-based.
Series [2] concerns virus. The following applies: cited from earlier work.
For series [3], the system named is MRC-5 cells.
For series [4], the system named is Human coronavirus 229E. The class given is cell-based. The following applies: 10 min pre-treatment with 10 μg/mL.

In the case of copper, in series [1], the “FIC of the single agent within the combination” value is 0.10 and 0.07. The “reported effect by itself on virus inhibition (antiviral concentration)” value in series [2] is 300 µg/mL.
For the substance “ethyl-N-alpha-lauroyl-L-arginate HCl [ELAH]”, in series [3], the cytotoxicity result is “non-cytotoxic”. Further, in series [4] (SEM), the “human coronavirus 229E binding and replication in the MRC-5 cell line” value is given as “inhibited”. The “viral entry and cytopathic effects caused by the virus” value in series [4] (after 48 hours of incubation, compared to controls) was “reduces”. Moreover, in series [1], the “FIC of the single agent within the combination” value came out at 0.10. In addition, the “reported effect by itself on virus inhibition (antiviral concentration)” value in series [2] was 300 µg/mL.
